# According to patent US11186589B2, “Cyanoindoline derivatives as NIK inhibitors” (Janssen Pharmaceutica NV, priority 2016, dated 2021):
# Where two headings read alike, the source gives them in different places.
# Tests used:
# [1] = biological target: NIK/MAP3K14 (Homo sapiens (Human), UniProt Q99558); experiment: Inhibition of auto-phosphorylation of recombinant human NF-kappaB-inducing kinase (NIK/MAP3K14) activity (AlphaScreen); type: biochemical; details: averaged values over all measurements on all batches, 25 microM ATP
# Method: Inhibition of Auto-Phosphorylation of Recombinant Human NF-kappaB-Inducing Kinase ([…]) Activity (AlphaScreen®)
# NIK/MAP3K14 auto-phosphorylation activity was measured using the AlphaScreen® (αscreen) format (Perkin Elmer). All compounds tested were dissolved in dimethyl sulfoxide (DMSO) and further dilutions were made in assay buffer. Final DMSO concentration was […] in assays. Assay buffer was 50 mM Tris pH 7.5 containing 1 mM EGTA (ethylene glycol tetraacetic acid), 1 mM DTT (dithiothreitol), 0.1 mM Na3VO4, 5 mM MgCl2, 0.01% Tween® 20. Assays were carried out in 384 well Alphaplates (Perkin Elmer). Incubations consisted of compound, 25 microM Adenosine-5′-triphosphate (ATP), and 0.2 nM NIK/MAP3K14. Incubations were initiated by addition of GST-tagged NIK/MAP3K14 enzyme, carried out for 1 h at 25° C. and terminated by addition of stop buffer containing anti-phospho-[…] Ser176/180 antibody. Protein A Acceptor and Glutathione-Donor beads were added before reading using an EnVision® Multilabel Plate Reader (Perkin Elmer). Signal obtained in the wells containing blank samples was subtracted from all other wells and IC50's were determined by fitting a sigmoidal curve to % inhibition of control versus Log10 compound concentration.
# [2] = system: JJN-3 cells; experiment: Antiproliferative activity on JJN-3 (NIK translocated) multiple myeloma cells (CellTiter-Glo); type: cell-based, human; details: JJN-3 (NIK translocated) cells, 96 hr treatment, averaged values, read-out: JJN-3 Proliferation inhibition (IC50 (nM))
# Method: (§1) Determination of Antiproliferative Activity on JJN-3 (NIK Translocated) and KMS12-BM (NIK WT) Multiple Myeloma Cells
# (§2) All compounds tested were dissolved in DMSO and further dilutions were made in culture medium. Final DMSO concentration was 0.3% (v/v) in cell proliferation assays. Viability was assessed using CellTiter-Glo cell viability assay kit (Promega). The human JJN-3 and KMS12-BM cells (DSMZ) were cultured in RPMI 1640 medium supplemented with 2 mM L-glutamine, and 10% fetal calf serum (PAA). Cells were routinely kept as suspension cells at 37° C. in a humidified 5% CO2 atmosphere. Cells were passaged at a seeding density of 0.2×10^6/ml twice a week. Cells were seeded in black tissue culture treated 96-well plates (Perkin Elmer). Densities used for plating ranged from 15000 (JJN3) to 20000 (KMS12BM) cells per well in a total volume of […]. Drugs and/or solvents were added (15 μl) to a final volume of 150 μl. Following 96 hr of treatment, plates were removed from the incubator and allowed to equilibrate to room temperature for approx 10 min. 75 μl CellTiter-Glo reagent was added to each well that was then covered (Perkin Elmer Topseal) and shaken on plate shaker for 10 min. Luminescence was measured on a HTS Topcount (Perkin Elmer). Within an experiment, the results for each treatment were the mean of 2 replicate wells. For initial screening purposes, compounds were tested using a 9 point dilution curve (serial 1:3 dilutions). For each experiment, controls (containing no drug) and a blank incubation (containing cells read at the time of compound addition) were run in parallel. The blank value was subtracted from all control and sample values. For each sample, the mean value for cell growth (in relative light units) was expressed as a percentage of the mean value for cell growth of the control.
# [3] = system: KMS12-BM cells; experiment: Antiproliferative activity on KMS12-BM (NIK WT) multiple myeloma cells (CellTiter-Glo); type: cell-based, human; details: 96 hr treatment, averaged values, read-out: KMS-12 Proliferation inhibition (IC50 (nM))
# Method: as §1, §2
# Chain of NIK/MAP3K14 (Q99558 whole entry): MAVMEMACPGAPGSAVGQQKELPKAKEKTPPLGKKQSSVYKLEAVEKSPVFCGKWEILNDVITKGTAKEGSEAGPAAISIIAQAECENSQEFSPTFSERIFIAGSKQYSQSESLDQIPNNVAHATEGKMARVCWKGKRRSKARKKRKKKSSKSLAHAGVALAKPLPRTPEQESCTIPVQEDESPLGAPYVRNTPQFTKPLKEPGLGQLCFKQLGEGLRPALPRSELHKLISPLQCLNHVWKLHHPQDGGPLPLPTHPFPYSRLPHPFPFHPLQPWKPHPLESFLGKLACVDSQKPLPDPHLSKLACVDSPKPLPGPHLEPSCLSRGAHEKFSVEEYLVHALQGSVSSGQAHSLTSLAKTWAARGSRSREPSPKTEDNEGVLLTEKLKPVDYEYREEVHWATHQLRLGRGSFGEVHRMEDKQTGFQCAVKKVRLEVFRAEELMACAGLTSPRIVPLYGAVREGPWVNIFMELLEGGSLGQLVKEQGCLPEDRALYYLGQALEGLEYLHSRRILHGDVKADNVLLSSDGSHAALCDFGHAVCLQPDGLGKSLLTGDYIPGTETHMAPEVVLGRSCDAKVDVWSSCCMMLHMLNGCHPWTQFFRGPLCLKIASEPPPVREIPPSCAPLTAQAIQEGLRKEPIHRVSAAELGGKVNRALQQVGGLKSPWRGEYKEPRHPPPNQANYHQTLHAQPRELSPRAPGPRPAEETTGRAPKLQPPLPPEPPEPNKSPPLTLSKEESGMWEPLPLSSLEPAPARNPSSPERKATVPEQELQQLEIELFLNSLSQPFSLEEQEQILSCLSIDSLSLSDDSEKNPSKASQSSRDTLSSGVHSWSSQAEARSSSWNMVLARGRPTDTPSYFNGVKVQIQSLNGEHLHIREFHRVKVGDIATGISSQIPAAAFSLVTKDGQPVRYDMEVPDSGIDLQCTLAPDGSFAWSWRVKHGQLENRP
SMILES,IC50 [1] [nM],"IC50 ([2]; Homo sapiens, JJN-3, 96 h) [nM]","IC50 ([3]; Homo sapiens, KMS-12-BM, 96 h) [nM]",IC50 [2] [nM],IC50 [3] [nM]
"CC1(CO)CNc2c(C#N)cc(-c3ccnc(Nc4ccc5c(c4)CC(CO)OC5)n3)cc21 (single isomer, unassigned) [Compound 5]",1.9,21,151,–,–
"CC1(CO)CNc2c(C#N)cc(-c3ccnc(Nc4ccc5c(c4)CC(CO)OC5)n3)cc21 (single isomer, unassigned) [Compound 8]",2,–,–,41,162
CC1(CO)CNc2c(C#N)cc(-c3ccnc(Nc4ccc5c(c4)CCCO5)n3)cc21 (stereo not shown) [Compound 1],5.9,96,550,–,–
CC1(C)CNc2c(C#N)cc(-c3ccnc(Nc4cccc5c4CNC5)n3)cc21 [Compound 2],4.3,112,~177,–,–
CN1CCc2ccc(Nc3nccc(-c4cc(C#N)c5c(c4)C(C)(CO)CN5)n3)cc2CC1 (stereo not shown) [Compound 3],1.4,~24,85,–,–
CC1(CO)CNc2c(C#N)cc(-c3ccnc(Nc4cc(Cl)cc5c4OCCC5)n3)cc21 (stereo not shown) [Compound 4],26.9,107,> 10000,–,–
Cn1nc2c(c1Nc1nccc(-c3cc(C#N)c4c(c3)C(C)(CO)CN4)n1)CCC2 (stereo not shown) [Compound 4b],8.5,1900,~6460,–,–
CC1(CO)CNc2c(C#N)cc(-c3ccnc(Nc4cc(Cl)cc5c4ccn5CCN4CCOCC4)n3)cc21 (stereo not shown) [Compound 4c],9.6,9,~1020,–,–
Cn1nc(Nc2nccc(-c3cc(C#N)c4c(c3)C(C)(CO)CN4)n2)c2c1CCC2 (stereo not shown) [Compound 5b],20.4,468,> 10000,–,–
CC1(CO)CNc2c(C#N)cc(-c3ccnc(Nc4cc(Cl)cc5c4ccn5CCCN4CCOCC4)n3)cc21 (stereo not shown) [Compound 5c],12,23,~692,–,–
CC1(C)CNc2c(C#N)cc(-c3ccnc(Nc4cccc5c4CNCC5)n3)cc21 [Compound 6],12.6,263,794,–,–
CC1OCCn2nc(Nc3nccc(-c4cc(C#N)c5c(c4)C(C)(CO)CN5)n3)cc21 (stereo not shown) [Compound 6b],5.9,398,~851,–,–
COCCCn1ccc2c(Nc3nccc(-c4cc(C#N)c5c(c4)C(C)(CO)CN5)n3)cc(Cl)cc21 (stereo not shown) [Compound 6c],34.8,10,1620,–,–
CC1(CO)CNc2c(C#N)cc(-c3ccnc(Nc4ccc5c(c4)C(F)(F)CCO5)n3)cc21 (stereo not shown) [Compound 7],5.9,48,525,–,–
CC1(CO)CNc2c(C#N)cc(-c3ccnc(Nc4cc5n(n4)CCOC5)n3)cc21 (stereo not shown) [Compound 7b],11.8,1700,6310,–,–
CN1Cc2cc(Nc3nccc(-c4cc(C#N)c5c(c4)C(C)(CO)CN5)n3)nn2CC1=O (stereo not shown) [Compound 8b],4,1150,6170,–,–
CC1(C)CNc2c(C#N)cc(-c3ccnc(Nc4cc(F)cc5[nH]ccc45)n3)cc21 [Compound 8c],38,85,> 10000,–,–

SMILES,IC50 [1] [nM],"IC50 ([2]; Homo sapiens, JJN-3, 96 h) [nM]","IC50 ([3]; Homo sapiens, KMS-12-BM, 96 h) [nM]",IC50 [2] [nM],IC50 [3] [nM]
CC(=O)N1CCc2c(C)c(Nc3nccc(-c4cc(C#N)c5c(c4)C(C)(CO)CN5)n3)cc(Cl)c21 (stereo not shown) [Compound 9],2,25,~2750,–,–
CN1CCn2nc(Nc3nccc(-c4cc(C#N)c5c(c4)C(C)(CO)CN5)n3)cc2C1 (stereo not shown) [Compound 9b],6.8,204,1660,–,–
Cc1c(Nc2nccc(-c3cc(C#N)c4c(c3)C(C)(CO)CN4)n2)cc(Cl)c2[nH]ccc12 (stereo not shown) [Compound 9c],10.5,1180,5620,–,–
CC1(CO)CNc2c(C#N)cc(-c3ccnc(Nc4cc(Cl)cc5c4CCN5)n3)cc21 (stereo not shown) [Compound 10],4.9,42,~5750,–,–
CC1(C)Cn2nc(Nc3nccc(-c4cc(C#N)c5c(c4)C(C)(CO)CN5)n3)cc2CO1 (stereo not shown) [Compound 10b],9.6,1020,2400,–,–
COc1nc2c(ccn2CC(=O)N(C)C)cc1Nc1nccc(-c2cc(C#N)c3c(c2)[C@@](C)(CO)CN3)n1 [Compound 10c],4.3,63,> 10000,–,–
CN(C)C(=O)C1COc2c(cc(Cl)cc2Nc2nccc(-c3cc(C#N)c4c(c3)[C@@](C)(CO)CN4)n2)C1 (stereo partly shown) [Compound 11],9.1,36,–,–,1180
COCCn1nc2c(c1Nc1nccc(-c3cc(C#N)c4c(c3)[C@@](C)(CO)CN4)n1)CCC2 [Compound 11b],39.8,1580,~1820,–,–
CNC(=O)CCn1ccc2c(Nc3nccc(-c4cc(C#N)c5c(c4)C(C)(CO)CN5)n3)cc(Cl)cc21 (stereo not shown) [Compound 11c],4.3,16,427,–,–
CN(C)C(=O)C1COc2c(cc(Cl)cc2Nc2nccc(-c3cc(C#N)c4c(c3)[C@@](C)(CO)CN4)n2)C1 (stereo partly shown) [Compound 12],14.1,–,–,22,~6610
CN(C)CC(=O)N1CCc2c(Nc3nccc(-c4cc(C#N)c5c(c4)[C@@](C)(CO)CN5)n3)cc(Cl)cc21 [Compound 13],1.3,18,~3550,–,–
CNC(=O)CN1CCc2c(Nc3nccc(-c4cc(C#N)c5c(c4)C(C)(CO)CN5)n3)cc(Cl)cc21 (stereo not shown) [Compound 14],3,54,251,–,–
COCCn1ccc2cc(Nc3nccc(-c4cc(C#N)c5c(c4)[C@@](C)(CO)CN5)n3)c(OC)nc21 [Compound 14c],5.6,63,> 10000,–,–
Cc1c(Nc2nccc(-c3cc(C#N)c4c(c3)[C@@](C)(CO)CN4)n2)ccc2c1CCN2C(=O)CN(C)C [Compound 15],2.5,89,96,–,–
Cc1c(Nc2nccc(-c3cc(C#N)c4c(c3)[C@@](C)(CO)CN4)n2)cc(Cl)c2c1CCN2C(=O)CN(C)C [Compound 16],1.6,26,~339,–,–
CC(C)c1c(Nc2nccc(-c3cc(C#N)c4c(c3)[C@@](C)(CO)CN4)n2)nn2c1CN(C)CC2 [Compound 16b],363,–,–,–,–
